Laboratory results as given in patent US20250381165A1, “Method of Use for Benzofuran Compounds” (Tampa Bay Research Institute, Inc., priority 2024, published 2025).

Key:
[1] = test system: MHC class I H-2Kb on DC2.4; assay: MHC class I recovery after acid stripping of DC2.4; format: cell-based, murine
Method: To determine if BzFβ affects synthesis or cycling of the MHC class I molecules, the class I molecule/peptide complexes were stripped from the surface of DC2.4 cells using a citric acid buffer, then treated with 25 μg/mL BzFβ, 5 mM of the dipeptide GL, or 3 μg/mL BFA (see Example 4) as a negative control.
An acid wash to strip the cell surface of MHC class I was performed as described with modifications. (Montealegre, et al., Dissociation of β2-microglobulin determines the surface quality control of major histocompatibility complex class I molecules. FASEB. 2015 July; 29(7):2780-8). DC2.4 were incubated overnight at 37° C. at 1×10^5. Cells were washed for 2 min in acidic buffer [(pH 2.5) 465 mM Citric acid, 35 mM sodium citrate, in PBS with 1% v/v FBS] or neutral buffer [(pH 7.4) PBS with 1% v/v FBS]. Afterwards the pH was neutralized by the addition of cDMEM. The cells were washed with PBS and treated with BzFβ or GL in cDMEM for various times to allow for MHC class I recovery at 37° C. Cells were washed and stained with an H-2Kb-specific antibody (Invitrogen, cat. no. 12-5958-82) and analyzed by flow cytometry as described previously
MHC I recovery on the cell surface at various time points was detected by flow cytometry using the PE-labeled MHC class I H-2Kb specific antibody (AF6-88.5.5.3). […] At 6 hours >60% of the MHC class I molecules recovered, seen in FIG. 14.

[2] = target: T1, MHC class I H-2Kb tetramer (Mus musculus, UniProt P01901); assay: QuickSwitch tetramer peptide exchange assay, H-2Kb; format: biochemical, murine; conditions: p<0.001; p=0.0013
T1 construct: purchased MBL International Corporation TB-7400-K2
T1 sequence (P01901 22-295 limits assumed): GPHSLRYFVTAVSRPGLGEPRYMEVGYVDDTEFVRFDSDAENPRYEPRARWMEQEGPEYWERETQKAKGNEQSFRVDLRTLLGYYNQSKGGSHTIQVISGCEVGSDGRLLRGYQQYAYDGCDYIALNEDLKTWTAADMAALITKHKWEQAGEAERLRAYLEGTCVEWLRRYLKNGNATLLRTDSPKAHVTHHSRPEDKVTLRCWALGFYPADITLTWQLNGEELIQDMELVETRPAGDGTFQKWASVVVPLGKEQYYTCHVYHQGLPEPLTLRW
T1 sequence (P61769 21-119 partner): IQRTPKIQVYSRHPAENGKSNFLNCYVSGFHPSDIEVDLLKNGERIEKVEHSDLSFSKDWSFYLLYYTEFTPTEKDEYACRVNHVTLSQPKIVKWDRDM

[3] = test system: splenocytes (B3Z activation); assay: In vivo SIINFEKL loading, splenocytes used ex vivo to activate B3Z; parameters: species or system C57BL/6NCrl mice
Method: Six- to ten-week-old male and female C57BL/6NCrl mice (Charles River Laboratories, Wilmington MA; cat. no. 027) were used for all animal studies. The mice were maintained in accord with the NIH Guide for the Care and Use of Laboratory Animals. Experimental procedures were performed in accord with research protocols approved by the Tampa Bay Research Institute's Institutional Animal Care and Use Committee. Mice were maintained in an INOVIVE individually ventilated cage system with 3 mice per cage containing 100% virgin wood pulp bedding (Harlan Teklad™, Harlan Sprague Dawley Inc., Indianapolis, IA; cat. n.o 7099). Water and food (Harlan Teklad™; cat. no. 8640) were available ad libitum. The mice were maintained on a cycle of 12 h of light and 12 h of dark in an environment with a temperature of 74-76° […]. and 40-60% humidity. All cages underwent 40 air changes hourly in the negative pressure mode, in accordance with manufacturer's recommendations. Both the intake and exhaust air from the system were filtered through HEPA filters to maintain a clean environment. Stock solutions of BzFβ were solubilized in alkaline water (pH 10) and then sterile filtered through 0.22 µm syringe filters. BzFβ used for iv or im injections was diluted in 0.9% saline (normal saline). The stock solutions of the SIINFEKL peptide were prepared in 1× calcium/magnesium free Dulbecco's phosphate-buffered saline (DPBS; ThermoFisher Scientific, cat. no. 14190144).
Since the oral route of drug delivery is preferred, various doses of BzFβ (1, 2, 4 mg) were administered by oral gavage, immediately following an iv injection of 50 μg SIINFEKL peptide. One-hour post-treatment the blood and spleens from each mouse was collected. […] The cell count was determined using the MUSE cell viability kit (MCH600103) and MUSE Cell Analyzer (Luminex Corp, Austin TX).
One hour later the splenocytes were isolated and immediately tested for peptide loading or used to activate B3Z cells. […] The colorimetric response was allowed to develop for 15-240 min and the OD 560 nm was measured at various time points using a Synergy HTX plate reader. […]

How did the “MHC class I recovery after acid stripping” value ([1]; 25 μg/mL BzFβ or 5 mM GL during recovery, 4-24 h) turn out when `O=C(O)/C=C/c1ccc2occc2c1` [BzFβ, (2E)-3-(1-benzofuran-5-yl)prop-2-enoic acid] was run?
Its value is “did not show an increase in MHC class I recovery”.

And the “B3Z response post acid-stripping” value ([1]; treated during recovery, data not shown)?
Its value is “still able to increase the B3Z response”.

What about the “displacing pre-bound peptide versus no exchange factor or provided exchange molecule” value [2] of the same compound?
The value was “significantly better”.

And the “ability of splenocytes to activate B3Z, three routes” value ([3]; gavage 1 mg, iv 50 μg or im 100 μg after iv 50 μg SIINFEKL, 1 h)?
The value was “successful at enhancing the ability of the splenocytes to activate B3Z”.

What about the “B3Z response, comparison of routes” value ([3]; iv 50 μg BzFβ) of the same compound?
The value was “greatest response”.

What about the “B3Z response to splenocytes versus peptide alone” value ([3]; oral gavage 1, 2, 4 mg after iv 50 μg SIINFEKL, 1 h) of the same compound?
The value was “significantly greater response”.
